From PMC5971065 (ACS infectious diseases, 2017)

Columns and labels:
[1] = tested on: A549, HEK-293, and J774A.1 cells; test: Mammalian cytotoxicity; conditions: positive control treatment
Mtb H37Rv = format: cell-based, Mycobacterium tuberculosis

With Triton X-100 as the substance, how does the cytotoxicity [1] read?
The cytotoxicity was “most of the cells killed”.

Which “H37Rv MICKAN” value (Mtb H37Rv) does the source give for kanamycin A here?
The value was 1.25 µg/mL.
